Source: ChEMBL document CHEMBL3351747, “Structure-based design of β1i or β5i specific inhibitors of human immunoproteasomes” (J Med Chem, 2014)
pIC50: −log10 of the molar value.

Columns and labels:
[1] = biological target: T1, Proteasome subunit beta type-8 (Homo sapiens, UniProt P28062); experiment: Inhibition of proteasome subunit beta-5i in human Raji cells using BODIPY-NC005 by fluorescent densitometry; type: cell-based
T1 sequence (P28062 whole entry): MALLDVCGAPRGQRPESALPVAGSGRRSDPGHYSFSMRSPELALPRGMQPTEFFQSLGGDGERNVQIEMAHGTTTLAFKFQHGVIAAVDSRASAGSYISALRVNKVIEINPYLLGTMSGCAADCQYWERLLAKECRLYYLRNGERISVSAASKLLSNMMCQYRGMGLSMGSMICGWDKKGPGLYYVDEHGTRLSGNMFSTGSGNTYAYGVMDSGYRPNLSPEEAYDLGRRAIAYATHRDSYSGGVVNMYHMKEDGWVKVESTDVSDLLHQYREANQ

[2] = Inhibition of 20s proteasome subunit beta-5c in human Raji cells using BODIPY-NC005 by fluorescent densitometry; type: cell-based
[3] = Inhibition of 20s proteasome subunit beta-1c in human Raji cells using BODIPY- epoxomicin by fluorescent densitometry; type: cell-based
[4] = biological target: T2, Proteasome subunit beta type-9 (Homo sapiens, UniProt P28065); experiment: Inhibition of proteasome subunit beta-1i in human Raji cells using BODIPY- epoxomicin by fluorescent densitometry; type: cell-based
T2 sequence (P28065 whole entry): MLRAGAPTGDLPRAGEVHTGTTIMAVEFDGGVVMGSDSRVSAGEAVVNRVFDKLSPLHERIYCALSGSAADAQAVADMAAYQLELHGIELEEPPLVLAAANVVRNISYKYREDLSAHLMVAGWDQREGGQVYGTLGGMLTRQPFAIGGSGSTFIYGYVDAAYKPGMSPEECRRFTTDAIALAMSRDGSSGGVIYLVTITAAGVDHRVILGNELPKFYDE

[5] = tested on: Raji; experiment: Ratio of IC50 for 20s proteasome subunit beta-1c to IC50 for proteasome subunit beta-1i in human Raji cells; type: cell-based
[6] = biological target: T1, Proteasome subunit beta type-8; experiment: Inhibition of proteasome subunit beta-5i in human RPMI8226 cells using BODIPY-NC005 by fluorescent densitometry; type: cell-based, RPMI-8226
[7] = biological target: T2, Proteasome subunit beta type-9; experiment: Inhibition of proteasome subunit beta-1i in human RPMI8226 cells using BODIPY-NC001 by fluorescent densitometry; type: cell-based, RPMI-8226
[8] = biological target: T3, Proteasome subunit beta type-10 (Homo sapiens, UniProt P40306); experiment: Inhibition of proteasome subunit beta-2i in human Raji cells using BODIPY- epoxomicin by fluorescent densitometry; type: cell-based
T3 sequence (P40306 whole entry): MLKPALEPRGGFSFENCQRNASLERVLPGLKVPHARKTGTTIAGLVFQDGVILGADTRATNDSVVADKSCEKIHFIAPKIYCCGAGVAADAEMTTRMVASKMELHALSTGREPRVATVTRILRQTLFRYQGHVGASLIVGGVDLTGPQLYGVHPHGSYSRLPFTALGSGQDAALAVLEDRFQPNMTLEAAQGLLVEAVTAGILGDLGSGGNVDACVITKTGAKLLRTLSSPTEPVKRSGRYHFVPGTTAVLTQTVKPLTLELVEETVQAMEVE

[9] = biological target: T3, Proteasome subunit beta type-10; experiment: Inhibition of proteasome subunit beta-2i in human RPMI8226 cells using BODIPY-epoxomicin by fluorescent densitometry; type: cell-based, RPMI-8226
[10] = Inhibition of 20s proteasome subunit beta-1c in human RPMI8226 cells using BODIPY-NC001 by fluorescent densitometry; type: cell-based; conditions: rpmi-8226
[11] = Inhibition of 20s proteasome subunit beta-2c in human Raji cells using BODIPY- epoxomicin by fluorescent densitometry; type: cell-based
[12] = Inhibition of 20s proteasome subunit beta-5c in human RPMI8226 cells using BODIPY-NC005 by fluorescent densitometry; type: cell-based; conditions: rpmi-8226
[13] = Inhibition of 20s proteasome subunit beta-2c in human RPMI8226 cells using BODIPY-epoxomicin by fluorescent densitometry; type: cell-based; conditions: rpmi-8226

Structure (SMILES) | pIC50 [1] | pIC50 [2] | pIC50 [3] | pIC50 [4] | further results
C[C@@H](NC(=O)CN1CCOCC1)C(=O)N[C@@H](Cc1c[nH]c2ccccc12)C(=O)N[C@@H](Cc1ccccc1)C(=O)[C@@]1(C)CO1 | 7.89 | 6.98 | – | – | –
CC1=C(C(=O)N[C@H](C)C(=O)N[C@@H](Cc2c[nH]c3ccccc23)C(=O)N[C@H](/C=C/S(C)(=O)=O)CC2CCCCC2)Cc2ccccc21 | 6.20 | 4.21 | – | – | –
COc1ccc(C[C@H](NC(=O)[C@H](C)NC(=O)CN2CCOCC2)C(=O)N[C@H](/C=C/S(C)(=O)=O)Cc2ccccc2)cc1 | 6.41 | 4.85 | – | – | –
CCCC[C@H](NC(=O)[C@@H]1C[C@@H](F)CN1C(=O)[C@H](C)NC(=O)CN=[N+]=[N-])C(=O)N[C@@H](CC(C)C)C(=O)[C@@]1(C)CO1 | – | – | 7.18 | 7.66 | Ratio IC50 [5]: 3
COc1ccc(C[C@H](NC(=O)[C@@H](C)NC(=O)CN2CCOCC2)C(=O)N[C@@H](CC2CCCCC2)C(=O)[C@@]2(C)CO2)cc1 | 7.44 | – | – | < 5.00 | pIC50 [6]: 7.00; pIC50 [7]: 5.14
COc1ccc(C[C@H](NC(=O)[C@H](C)NC(=O)CN2CCOCC2)C(=O)N[C@@H](CC23CC4CC(CC(C4)C2)C3)C(=O)[C@@]2(C)CO2)cc1 | < 4.30 | < 4.30 | – | – | –
CCCC[C@H](NC(=O)[C@@H]1CCCN1C(=O)[C@H](C)NC(=O)CN=[N+]=[N-])C(=O)N[C@@H](Cc1ccccc1)C(=O)[C@@]1(C)CO1 | – | – | 6.24 | 7.18 | pIC50 [8]: < 4.00; Ratio IC50 [5]: 9
C[C@@H](NC(=O)CN1CCOCC1)C(=O)N[C@@H](Cc1c[nH]c2ccccc12)C(=O)N[C@@H](Cc1ccc(-c2ccccc2)cc1)C(=O)[C@@]1(C)CO1 | 8.68 | 7.85 | – | – | –
COc1ccc(C[C@H](NC(=O)[C@@H](C)NC(=O)CN2CCOCC2)C(=O)N[C@@H](Cc2ccc(-c3ccccc3)cc2)C(=O)[C@@]2(C)CO2)cc1 | 8.92 | 8.00 | – | – | –
CC1=C(C(=O)N[C@H](C)C(=O)N[C@@H](Cc2c[nH]c3ccccc23)C(=O)N[C@@H](CC2CCCCC2)C(=O)[C@@]2(C)CO2)Cc2ccccc21 | 8.08 | 5.34 | < 5.00 | 5.15 | pIC50 [6]: 6.64; pIC50 [9]: < 4.00; pIC50 [10]: < 4.00; pIC50 [7]: 4.80; pIC50 [8]: < 5.00; pIC50 [11]: < 5.00; pIC50 [12]: < 4.00; pIC50 [13]: < 4.00
COc1ccc(C[C@H](NC(=O)[C@@H](C)NC(=O)C2=C(C)c3ccccc3C2)C(=O)N[C@@H](Cc2ccc(-c3ccccc3)cc2)C(=O)[C@@]2(C)CO2)cc1 | 8.48 | 7.37 | – | – | –
CCCC[C@H](NC(=O)[C@@H]1CCN1C(=O)[C@H](C)NC(=O)CN=[N+]=[N-])C(=O)N[C@@H](CC(C)C)C(=O)[C@@]1(C)CO1 | – | – | 7.27 | 7.02 | Ratio IC50 [5]: 0.6
COc1ccc(C[C@H](NC(=O)[C@H](C)NC(=O)CN2CCOCC2)C(=O)N[C@@H](Cc2cccc3ccccc23)C(=O)[C@@]2(C)CO2)cc1 | 6.61 | 5.74 | – | – | –
CCCC[C@H](NC(=O)[C@@H]1C[C@H](F)CN1C(=O)[C@H](C)NC(=O)CN=[N+]=[N-])C(=O)N[C@@H](CC(C)C)C(=O)[C@@]1(C)CO1 | – | – | 6.29 | 6.66 | Ratio IC50 [5]: 2.3
COc1ccc(C[C@H](NC(=O)[C@H](C)NC(=O)CN2CCOCC2)C(=O)N[C@@H](Cc2ccc(-c3ccccc3)cc2)C(=O)[C@@]2(C)CO2)cc1 | 8.70 | 7.70 | – | – | –
COc1ccc(C[C@H](NC(=O)[C@H](C)NC(=O)CN2CCOCC2)C(=O)N[C@@H](Cc2ccccc2)C(=O)[C@@]2(C)CO2)cc1 | – | 7.27 | < 5.00 | – | pIC50 [10]: < 5.30; pIC50 [11]: 5.96; pIC50 [12]: 6.74; pIC50 [13]: 5.96
COc1ccc(C[C@H](NC(=O)[C@@H](C)NC(=O)C2=C(C)c3ccccc3C2)C(=O)N[C@@H](CC2CCCCC2)C(=O)[C@@]2(C)CO2)cc1 | 7.96 | 5.26 | < 5.00 | < 5.00 | pIC50 [6]: 6.43; pIC50 [9]: < 4.00; pIC50 [10]: < 4.00; pIC50 [7]: < 4.00; pIC50 [8]: < 5.00; pIC50 [11]: < 5.00; pIC50 [12]: < 4.00; pIC50 [13]: < 4.00
